Assays:
IGF-1 [1] = test: Example 9 field study: IGF-1 serum levels; assay type: in vivo; conditions: cats with CKD, 2 mg/kg once daily
Method: A 1-mL blood sample was collected into a vacutainer tube containing no anticoagulant at the screening/qualification/Day 0, Day 30±2, Day 60±3 and Day 90±3 or at the last study visit (i.e. early removal). Blood samples were kept at room temperature and allowed to clot for about 1 hour. Clotted samples were centrifuged for approximately 15 minutes at 3000 RPM.

[2] = Dose titration laboratory study (10 days): food consumption and bodyweight; assay type: in vivo; conditions: cats
Method: This study defined a capromorelin oral solution dose regime that provides increased food intake and weight gain and the accompanying desired profile of IGF-1 serum levels. Laboratory adult cats were housed individually and divided into five groups (3/sex/group; n=6/group). Cats were dosed once daily for 10 consecutive days with either placebo, 1 mg/kg AT-002, 2 mg/kg AT-002, 3 mg/kg AT-002 or 4 mg/kg AT-002. The test article was a flavored solution formulation very similar to the final formulation. Study activities are summarized at Table 5.
The percent change in food consumption from baseline (average of Day −3, Day −2, and Day −1) compared to the treatment period (average of Day 1 through Day 10) was calculated for each cat, and is summarized at Table 6. The mean percent change from baseline to the treatment period for the placebo group increased 13.0%.
The percent change in bodyweight from Day −1 compared to Day 10 was calculated for each cat, and is summarized at table 7. The mean percent change for the placebo group was −0.35%, indicating a decrease in weight. […] The 4 mg/kg AT-002 group approached statistical significance (p=0.0502)

IGF-1 [3] = test: Pilot clinical field study: IGF-1 serum levels; assay type: in vivo, cats
Method: (§1) The key variable for the determination of effectiveness was bodyweight. Other effectiveness variables measured included body condition score, muscle condition score, quality of life assessments (unvalidated) and owner appetite assessments (unvalidated). Safety was assessed by physical examinations, clinical pathology testing (hematology and serum chemistry), urinalysis, serum IGF-1 levels and adverse event monitoring.

[4] = Pilot clinical field study in cats with CKD (Example 11); assay type: in vivo; conditions: for mean bodyweight change (±SEM): 2 mg/kg oral once daily
Method: This placebo controlled, masked non-GCP study was to confirm the safety and effectiveness (weight gain) of AT-002 (capromorelin) at a dose of 2 mg/kg administered once daily for 90 days in cats with CKD and a history of losing weight.
A total of 42 cats were screened at 7 veterinary clinics. Of these 42 cats, 1 was a screen failure, resulting in 41 cats being enrolled and randomized to 1 of 2 treatments, capromorelin oral solution (AT-002) or placebo (CP). Eligible study candidates included cats that presented to the veterinary clinic with a diagnosis of CKD (IRIS stages II, III or IV) and a documented decrease in bodyweight over the previous 6 months. Test articles were provided as flavored oral solutions and were administered orally once daily beginning on Day 0 for 90±3 days, AT-002 at a dose rate of 2 mg/kg and CP at the equivalent dose volume to AT-002. The Investigator, study staff and cat Owners were masked to treatment. Cats were re-evaluated at the clinic on Day 14±1, Day 30±2, Day 60±3 and Day 90±3.
as §1

IGF-1 [5] = test: One-year dog safety study: IGF-1 plasma levels; assay type: in vivo, Beagle dogs; conditions: dogs, following treatment, sustained over time to Day 351
Method: This study evaluated the safety of capromorelin in dogs. Thirty-two Beagle dogs were randomly assigned to four groups (n=4/sex/group) and received 0 mg/kg, 0.39 mg/kg, 9.2 mg/kg, or 52.4 mg/kg capromorelin (with the dose calculated per the tartrate salt) once daily by oral gavage for 12 consecutive months. Safety parameters were evaluated including clinical signs, food consumption, bodyweight, clinical pathology, urinalysis, ophthalmology, electrocardiogram and vital signs. Capromorelin, GH and IGF-1 were measured in plasma samples collected at various time points during the study. At the end of the dosing period, dogs were humanely euthanized and necropsied. Selected organs were weighed and tissue samples collected and processed for microscopic examination.

IGF-1 [6] = test: Capromorelin efficacy in cats for 21 days: serum IGF-1 levels; assay type: in vivo
Method: Thirty-two cats (16 neutered males, 16 females) were divided into 4 treatment groups including 4 animals of each sex per group. The cats were acclimated to the study environment for 10 days prior to study start. All cats were orally dosed with placebo (Group 1) or capromorelin (30 mg/ml oral solution, Formulation 9 as described above) at 1 mg/kg (Group 2), 2 mg/kg (Group 3) or 3 mg/kg (Group 4), for 21 days, with dosing starting on Day 1. Physical examinations were performed on Day −10 and general health observations made daily. Body weights were evaluated on Days −10, −8, −1, 1, 8, 15 and 22 days. Cats were fed about 1 hour after dosing. Commercial dry cat food (300 g) was provided for 5 hours and then removed and the amount of food consumed (g) calculated per cat. On Days 1, 14 and 21, blood samples were collected prior to daily dose administration and at 8 hours post-dose and serum processed for measurement of IGF-1 levels.

[7] = capromorelin group, Day 0 (baseline)
[8] = 2 mg/kg, 90 days, PPP1, not statistically significant vs placebo

Structure (SMILES): CN1N=C2CCN(C(=O)[C@@H](COCc3ccccc3)NC(=O)C(C)(C)N)C[C@@]2(Cc2ccccc2)C1=O.O=C(O)C(O)C(O)C(=O)O [capromorelin, N-[(2R)-1-[(3aR)-2-methyl-3-oxo-3a-(phenylmethyl)-6,7-dihydro-4H-pyrazolo[4,3-c]pyridin-5-yl]-1-oxo-3-(phenylmethoxy)propan-2-yl]-2-amino-2-methylpropanamide L-tartrate]
- IGF-1 serum levels following administration (IGF-1 [1]): increase
- Food Consumption, Percent Change From Baseline ([2]; 1 mg/kg SID, Day 1-10 vs Days -3 to -1): 30.54%
- Bodyweight, Percent Change From Baseline ([2]; 1 mg/kg SID, Day -1 to Day 10): 3.07%
- Food Consumption, Percent Change From Baseline ([2]; 2 mg/kg SID, Day 1-10 vs Days -3 to -1): 45.53%
- Bodyweight, Percent Change From Baseline ([2]; 2 mg/kg SID, Day -1 to Day 10): 3.66%
- Food Consumption, Percent Change From Baseline ([2]; 3 mg/kg SID, Day 1-10 vs Days -3 to -1): 54.04%
- Bodyweight, Percent Change From Baseline ([2]; 3 mg/kg SID, Day -1 to Day 10): 5.72%
- Food Consumption, Percent Change From Baseline ([2]; 4 mg/kg SID, minus 5F1, Day 1-10 vs Days -3 to -1): 78.82%
- Bodyweight, Percent Change From Baseline ([2]; 4 mg/kg SID, minus 5F1, Day -1 to Day 10): 3.57%
- IGF-1 Serum Levels, Mean Levels (SEM) (IGF-1 [3]; 2 mg/kg once daily, Day 30): 855.60 ± 72.74 ng/mL
- IGF-1 Serum Levels, Change over baseline (Day 0) (IGF-1 [3]; 2 mg/kg once daily, Day 30, L-tartrate): 274.60 ± 49.06 ng/mL
- IGF-1 Serum Levels, Change over baseline (Day 0) (IGF-1 [3]; 2 mg/kg once daily, Day 60): 195.64 ± 40.70 ng/mL
- IGF-1 Serum Levels, Mean Levels (SEM) (IGF-1 [3]; 2 mg/kg once daily, Day 60): 752.55 ± 56.89 ng/mL
- IGF-1 Serum Levels, Change over baseline (Day 0) (IGF-1 [3]; 2 mg/kg once daily, Day 90): 163.82 ± 52.74 ng/mL
- IGF-1 Serum Levels, Mean Levels (SEM) (IGF-1 [3]; 2 mg/kg once daily, Day 90): 720.73 ± 65.70 ng/mL
- IGF-1 Serum Levels, Mean Levels (SEM) (IGF-1 [3]; [7]): 556.91 ± 64.30 ng/mL
- mean body condition score (scale of 1 to 9) [4, 8]: increased slightly
- mean muscle condition score (scale of 0 to 3) [4, 8]: increased
- % Success, success defined as greater than 0% gain ([4]; 2 mg/kg, Day 14, PPP2): 86.7%
- % Success, success defined as maintenance or gain ([4]; 2 mg/kg, Day 14, PPP2): 86.7%
- Body weight successes per group, success defined as greater than 0% gain ([4]; 2 mg/kg, Day 14, PPP2): 13/15
- Bodyweight successes per group, success defined as maintenance or gain ([4]; 2 mg/kg, Day 14, PPP2): 13/15
- % Success, success defined as greater than 0% gain ([4]; 2 mg/kg, Day 30, PPP2): 86.7%
- % Success, success defined as maintenance or gain ([4]; 2 mg/kg, Day 30, PPP2): 93.3%
- Body weight successes per group, success defined as greater than 0% gain ([4]; 2 mg/kg, Day 30, PPP2): 13/15
- Bodyweight successes per group, success defined as maintenance or gain ([4]; 2 mg/kg, Day 30, PPP2): 14/15
- % Success, success defined as greater than 0% gain ([4]; 2 mg/kg, Day 60, PPP2): 66.7%
- % Success, success defined as maintenance or gain ([4]; 2 mg/kg, Day 60, PPP2): 80.0%
- Body weight successes per group, success defined as greater than 0% gain ([4]; 2 mg/kg, Day 60, PPP2): 10/15
- Bodyweight successes per group, success defined as maintenance or gain ([4]; 2 mg/kg, Day 60, PPP2): 12/15
- change in mean descriptive quality of life monthly score (±SEM) from Day 0 ([4]; 2 mg/kg, Day 90): 0.00±0.11
- % Success, success defined as greater than 0% gain ([4]; 2 mg/kg, Day 90, PPP2): 73.3%
- % Success, success defined as maintenance or gain ([4]; 2 mg/kg, Day 90, PPP2): 80.0%
- Body weight successes per group, success defined as greater than 0% gain ([4]; 2 mg/kg, Day 90, PPP2): 11/15
- Bodyweight successes per group, success defined as maintenance or gain ([4]; 2 mg/kg, Day 90, PPP2): 12/15
- mean descriptive owner appetite assessment monthly scores ([4]; 2 mg/kg, compared to placebo, Days 30, 60, 90, PPP1): did not change significantly
- mean descriptive quality of life monthly score (±SEM), scale of 1 to 5 [4, 7]: 3.85±0.19
- tolerability ([4]; cats with CKD, 2 mg/kg once daily, 90 days): well-tolerated
- mean bodyweight change (±SEM) ([4]; cats with CKD, Day 14, n = 13, PPP1): 2.93% ± 0.70%
- mean bodyweight change (±SEM) ([4]; cats with CKD, Day 30, n = 13, PPP1, L-tartrate, 2 mg/kg): 3.86%±0.85%
- mean bodyweight change (±SEM) ([4]; cats with CKD, Day 30, n = 13, PPP1, listed as Capromorelin, L-tartrate, 2 mg/kg): 3.86% ± 0.85%
- mean bodyweight change (±SEM) ([4]; cats with CKD, Day 60, n = 13, PPP1, L-tartrate, 2 mg/kg): 4.06%±1.42%
- mean bodyweight change (±SEM) ([4]; cats with CKD, Day 60, n = 13, PPP1, listed as Capromorelin, L-tartrate, 2 mg/kg): 4.06% ± 1.42%
- mean bodyweight change (±SEM) ([4]; cats with CKD, Day 90, n = 13, PPP1, L-tartrate, 2 mg/kg): 3.59%±1.59%
- mean bodyweight change (±SEM) ([4]; cats with CKD, Day 90, n = 13, PPP1, listed as Capromorelin, L-tartrate, 2 mg/kg): 3.59% ± 1.59%
- IGF-1 plasma levels (IGF-1 [5]): increased
- group mean serum IGF-1 increase from 0 to 8 hours post-dose (IGF-1 [6]; 1 mg/kg (Group 2), Day 1): 46.69%
- group mean serum IGF-1 increase from 0 to 8 hours post-dose (IGF-1 [6]; 1 mg/kg (Group 2), Day 14): 17.27%
- group mean serum IGF-1 increase from 0 to 8 hours post-dose (IGF-1 [6]; 1 mg/kg (Group 2), Day 21): 9.81%
- group mean serum IGF-1 increase from 0 to 8 hours post-dose (IGF-1 [6]; 2 mg/kg (Group 3), Day 1): 29.38%
- group mean serum IGF-1 increase from 0 to 8 hours post-dose (IGF-1 [6]; 2 mg/kg (Group 3), Day 14): 9.00%
- group mean serum IGF-1 increase from 0 to 8 hours post-dose (IGF-1 [6]; 2 mg/kg (Group 3), Day 21): 2.68%
- group mean serum IGF-1 increase from 0 to 8 hours post-dose (IGF-1 [6]; 3 mg/kg (Group 4), Day 1): 36.77%
- group mean serum IGF-1 increase from 0 to 8 hours post-dose (IGF-1 [6]; 3 mg/kg (Group 4), Day 14): 18.56%
- group mean serum IGF-1 increase from 0 to 8 hours post-dose (IGF-1 [6]; 3 mg/kg (Group 4), Day 21): 5.17%
